# Laboratory results published in article PMC4414309, “Target Modulation by a Kinase Inhibitor Engineered to Induce a Tandem Blockade of the Epidermal Growth Factor Receptor (EGFR) and c-Src: The Concept of Type III Combi-Targeting” (PLoS ONE, 2015).
# Columns and labels:
# [1] = system: NIH3T3 wild type and EGFR transfected cells; assay: Apoptosis by annexin V/PI flow cytometry; format: cell-based, mouse; conditions: 48h
# Protocol: NIH3T3 cell lines (wild type and EGFR transfected) were plated in 6-well plates (500,000 cells/well) and allowed to grow overnight (37°C, 5% CO2). […] They were subsequently collected using trypsin (Wisent Inc., St-Bruno, Canada), centrifuged (2000 rpm, 5 min), rinsed with PBS and centrifuged again to obtain a cell pellet. The pellet was re-suspended in binding buffer (1X) and prior to being analyzed, annexin V-FITC and PI stains (eBioscience, San Diego, CA, USA) were added to the cells and incubated for 15 min in the dark at 4°C. Annexin V–FITC and PI binding were analyzed with a Becton Dickinson FACScan. Data were collected using logarithmic amplification of both the FL1 (FITC) and FL2 (PI) channels. Quadrant analysis of coordinate dot plots was done with CellQuestPro software. The experiment was carried out three times.
# [2] = LC-MS analysis of AL776 hydrolysis in plasma in vivo; parameters: species or system CD-1 mice
# Protocol: CD-1 mice were divided into groups of three and treated with 80 mg/kg of AL776, injected intraperitoneally (i.p) or intravenously (i.v). Mice were sacrificed and their plasma was collected for further analysis after 0, 5, 15 and 30 min after drug treatment. Plasma samples were extracted using twice the volume of methanol and lysed at 13,000 rpm for 30 min at 4°C. The resulting supernatant from each sample was collected, filtered and evaporated to dryness before reconstituting in 100 μL of methanol. LC-MS analyses were performed on a Synapt G2-S instrument coupled with an Acquity UPLC Class I system both from Waters. Elution rate was set at 500 μL/min using an Eclipse XDB C8, 3.5 um, 2.1 x 100 mm chromatographic column from Agilent Technologies. The experiments were performed with the following eluents: 0.1% aqueous formic acid (eluent A) and methanol (eluent B). The initial mobile phase was 30% B, which was maintained for 0.2 min at the beginning of the run. The following gradient elution was subsequently applied: 30 to 50% B from 0.2 to 4 min; 50 to 80% B from 4 to 10 min; held at 80% B from 10 to 11 min. Thereafter, eluent B was decreased to 30% in 0.2 min and held constant for up to 15 min to allow the column to equilibrate. Each sample was diluted with methanol in order to avoid detector saturation and […] aliquots of the resulting solutions were injected. Analyses were performed with the electrospray interface in positive ion mode and mass spectra acquired from m/z 100 to 1200. For accurate mass determination, Leucine Enkephalin was used as lock mass. The MassLynx software was used for instrument control, data acquisition and data processing.
# 4T1 cells [3] = assay: Growth inhibition, SRB assay, 4T1; conditions: Mus musculus, 4T1, 120 h, read-out: IC50 growth inhibition 4T1
# Protocol: Growth inhibition was measured in cells using the sulforhodamine B (SRB) assay [48]. […] The plates were subsequently rinsed with 1% acetic acid, and allowed to dry overnight. […] The results were analyzed using GraphPad Prism 6.0 (GraphPadSoftware, Inc., San Diego, CA) and the sigmoidal dose response curve was used to determine IC50 values. Each experiment was carried out at least four times, in triplicate.
# [4] = system: c-Src phosphorylation in 4T1 tumours; assay: Pharmacodynamics in 4T1 tumours, c-Src phosphorylation; conditions: i.v., AL776 40 mg/kg, gefitinib + dasatinib 20 mg/kg each
# Protocol: (§3) Mice were implanted with 4T1 mammary tumour cells, 15 million cells/flank (suspended in 200 μL PBS), subcutaneously.
# (§4) Mice were sacrificed 1h or 24h after treatment and their tumours were collected and snap frozen at -80°C for further analysis using western blots. Tumours were crushed using a mortar/pestle chilled using liquid nitrogen and lysed with RIPA buffer diluted to a 1X concentration and supplemented with 1mM PMSF (Cell Signaling Technology, USA). Western blot analysis was carried out with the tumour samples, similar to the method described earlier.
# MDA-MB-231 cells [5] = assay: Boyden chamber invasion assay, MDA-MB-231; format: cell-based, human; conditions: MDA-MB-231, concentration as low as 0.1 μM, 24h
# Protocol: (§1) The invasive property of MDA-MB-231 and 4T1 cells was determined using the Boyden-chamber invasion assay. Cells suspended in serum-free media were plated (120–150,000 cells/well) onto polycarbonate transwell inserts (8 μm pore size, BD Biosciences) coated with matrigel (6%) (BD Biosciences), separating the top and bottom chambers (50 μl/filter). […] The invasive property of cells was observed 24h after treatment by fixing cells in formalin and staining with 0.1% crystal violet (Sigma-Aldrich Canada Ltd). Cells attached on the upper surface of the insert (top chamber) were removed by gently scraping away with a cotton swab, whereas those that invaded onto the lower side of the insert were observed using a microscope (Leica DM IL inverted microscope, 10X). Images of five non-overlapping fields of invading cells were captured using the Leica DFC300FX camera and quantification was done using the Scion Image Analysis (3.53.0.0) software and ImageJ 1.46r software. The results were expressed in terms of percentage of invading cells relative to control and the bar graphs represent the average of three independent experiments.
# 4T1 cells [6] = assay: Wound-healing assay, 4T1; format: cell-based, mouse; conditions: 4T1, 0.1 μM, 24h drug exposure
# Protocol: (§2) MDA-MB-231 and 4T1 cells were plated in 6-well plates (500,000 cells/well) and allowed to attach overnight (37°C, 5% CO2). The following day, media was removed and a cross scratch was made in the middle of the cell monolayer. […] The scratch was visualized at two different time points (0 and 24h) using the Leica DM IL inverted microscope (10X) and images were obtained using the Leica DFC300FX camera.
# [7] = system: ERK1/2 phosphorylation in 4T1 tumours; assay: Pharmacodynamics in 4T1 tumours, ERK1/2 phosphorylation; conditions: i.v., AL776 40 mg/kg, gefitinib + dasatinib 20 mg/kg each
# Protocol: as §3, §4
# MDA-MB-231 cells [8] = assay: Wound-healing assay, MDA-MB-231; format: cell-based, human; conditions: MDA-MB-231, 0.1 μM, 24h drug exposure
# Protocol: as §2
# 4T1 cells [9] = assay: Boyden chamber invasion assay, 4T1; format: cell-based, mouse; conditions: 4T1, concentration as low as 0.1 μM, 24h
# Protocol: as §1
# c-Src = molecular target: T1, c-Src (Homo sapiens, UniProt P12931); assay: In vitro kinase assay, c-Src; format: biochemical; conditions: ATP 50 μM, read-out: IC50 c-Src kinase inhibition
# T1 construct: purchased Enzo Life Sciences Inc, NY, USA; Signal Chem, Richmond, Canada
# Protocol: The EGFR and c-Src kinase assays were performed in 96-well plates (NuncMaxisorp) coated with PGT (poly L-glutamic acid L-tyrosine, 4:1, Sigma Aldrich, MO, USA) and incubated at 37°C for 48h prior to using. PGT served as the substrate to be phosphorylated by EGFR (Enzo Life Sciences Inc, NY, USA, Signal Chem, Richmond, Canada) and c-Src (Enzo Life Sciences Inc, NY, USA, Signal Chem, Richmond, Canada) in the presence of ATP (50 μM). […] To each well, 15 ng of EGFR (20 μg/ml) or 6 ng of c-Src (0.1 μg/μl) were added. The phosphorylated substrate was detected using an HRP-conjugated anti-phosphotyrosine antibody (Santa Cruz Biotechnology, CA). The signal was developed by the addition of 3, 3’, 5, 5’-tetramethylbenzidine peroxidase substrate (Kierkegaard and Perry Laboratories, Gaithersburg, MD) and the colorimetric reaction was monitored at 450 nm using a microplate reader ELx808 (BioTek Instruments). The IC50 values were calculated using GraphPad Prism 6.0 (GraphPadSoftware, Inc., San Diego, CA). Each experiment was carried out at least three times, in duplicate.
# T1 sequence (P12931 whole entry): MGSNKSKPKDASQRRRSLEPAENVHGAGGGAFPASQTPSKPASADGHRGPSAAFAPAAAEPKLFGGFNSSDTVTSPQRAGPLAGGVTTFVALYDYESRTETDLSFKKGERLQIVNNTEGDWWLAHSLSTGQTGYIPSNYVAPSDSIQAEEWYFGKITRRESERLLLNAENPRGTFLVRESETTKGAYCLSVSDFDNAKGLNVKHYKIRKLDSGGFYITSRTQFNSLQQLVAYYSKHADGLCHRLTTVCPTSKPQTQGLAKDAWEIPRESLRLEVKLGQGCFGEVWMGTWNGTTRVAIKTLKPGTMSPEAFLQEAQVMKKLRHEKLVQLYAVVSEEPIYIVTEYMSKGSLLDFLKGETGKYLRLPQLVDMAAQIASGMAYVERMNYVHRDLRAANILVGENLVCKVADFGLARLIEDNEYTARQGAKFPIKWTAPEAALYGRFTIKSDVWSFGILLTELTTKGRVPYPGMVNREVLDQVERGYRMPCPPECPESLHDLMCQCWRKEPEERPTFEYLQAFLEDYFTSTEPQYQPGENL
compound,measurement,setting,value
Cc1nc(Nc2ncc(C(=O)Nc3c(C)cccc3Cl)s2)cc(N2CCN(CCOC(=O)CCC(=O)OCCN(C)Cc3ccc(C(=O)Nc4ccc5ncnc(Nc6cccc(Cl)c6)c5c4)cc3)CC2)n1 [AL776],Level of apoptosis (early + late),[1]; 1μM dose,higher level of apoptosis than gefitinib or dasatinib
same,Lowest concentration inducing apoptosis,[1],1 µM
same,Intact AL776 in plasma,"[2]; 80 mg/kg i.p., early time points",no intact AL776 found in plasma
same,Intact AL776 in plasma,"[2]; 80 mg/kg i.v., 30 min post-administration",barely detectable levels
same,IC50,4T1 cells [3],70 ± 10 nM
same,Inhibition of c-Src phosphorylation in tumours,[4]; 1h post-administration,strong blockade
same,Inhibition of c-Src phosphorylation in tumours,[4]; 24 h post-treatment,reversed
same,Effect on invasion,MDA-MB-231 cells [5],strongly inhibited invasion
same,Effect on wound-closure,4T1 cells [6],blocked wound-closure
same,Inhibition of ERK1/2 phosphorylation in tumours,[7]; 1h post-administration,strongly inhibited
same,Inhibition of ERK1/2 phosphorylation in tumours,[7]; 24 h post-treatment,reversed
same,Effect on wound-closure,MDA-MB-231 cells [8],blocked wound-closure
same,Effect on invasion,4T1 cells [9],strongly inhibited invasion
same,IC50,c-Src,3 nM
